Experimental findings from patent US12662469B2 (SIRONAX LTD, priority 2018, dated 2026) are described below.

Broadly, the EC50 is the concentration at which the effect is half-maximal.

For one experiment, the system named is Cell Necrosis. The experiment can be described thus: Cell necrosis assay / cell viability assay (necrosis inhibitor activity). The experiment is classed as cell-based.
Details: not given
`CN(C)CCC1Oc2cc(F)c(OC3CN(C(=O)N4N=CC[C@H]4c4cc(F)cc(F)c4)C3)cc2NC1=O` (stereo partly drawn) [Compound 249, 6-((1-((S)-5-(3,5-difluorophenyl)-4,5-dihydro-1H-pyrazole-1-carbonyl)azetidin-3-yl)oxy)-2-(2-(dimethylamino)ethyl)-7-fluoro-2H-benzo[b][1,4]oxazin-3(4H)-one] returned an EC50 of 1 to 1000 nM.

Staying with this experiment, now noted: necrosis inhibitor activity; compounds outside 14-191; read-out: EC50.
Consider `NC(=O)CC[C@@H]1Oc2cc(F)c(OC3CN(C(=O)N4N=CC[C@H]4c4cc(F)cc(F)c4)C3)cc2NC1=O` [Compound 245, 3-((S)-6-((1-((S)-5-(3,5-difluorophenyl)-4,5-dihydro-1H-pyrazole-1-carbonyl)azetidin-3-yl)oxy)-7-fluoro-3-oxo-3,4-dihydro-2H-benzo[b][1,4]oxazin-2-yl)propanamide], for which the EC50 lay within 1 to 1000 nM.
On the same count and under the same terms, to `O=C1Nc2cc(OC3CN(C(=O)N4N=CC[C@H]4c4cc(F)cc(F)c4)C3)c(F)cc2OC1CCO` (stereo partly drawn) [Compound 246, 6-((1-((S)-5-(3,5-difluorophenyl)-4,5-dihydro-1H-pyrazole-1-carbonyl)azetidin-3-yl)oxy)-7-fluoro-2-(2-hydroxyethyl)-2H-benzo[b][1,4]oxazin-3(4H)-one] belongs 1 to 1000 nM; to `COCCC1Oc2cc(F)c(OC3CN(C(=O)N4N=CC[C@H]4c4cc(F)cc(F)c4)C3)cc2N(C)C1=O` (stereo partly shown) [Compound 247], 1 to 1000 nM; to `CN1C(=O)C(CCO)Oc2cc(F)c(OC3CN(C(=O)N4N=CC[C@H]4c4cc(F)cc(F)c4)C3)cc21` (stereo partly drawn) [Compound 248, 6-((1-((S)-5-(3,5-difluorophenyl)-4,5-dihydro-1H-pyrazole-1-carbonyl)azetidin-3-yl)oxy)-7-fluoro-2-(2-hydroxyethyl)-4-methyl-2H-benzo[b][1,4]oxazin-3(4H)-one], 1 to 1000 nM.
The same measure, in the same setting: to `CCC1Oc2cc(F)c(OC3CN(C(=O)N4N=CC[C@H]4c4cc(F)cc(F)c4)C3)cc2NC1=O` (stereo partly drawn) [Compound 250, 6-((1-((S)-5-(3,5-difluorophenyl)-4,5-dihydro-1H-pyrazole-1-carbonyl)azetidin-3-yl)oxy)-2-ethyl-7-fluoro-2H-benzo[b][1,4]oxazin-3(4H)-one] belongs 1 to 1000 nM; to `Nc1ccc(F)c(OC2CN(C(=O)N3N=CC[C@H]3c3cc(F)cc(F)c3)C2)n1` [Compound 251, (S)-(3-((6-amino-3-fluoropyridin-2-yl)oxy)azetidin-1-yl)(5-(3,5-difluorophenyl)-4,5-dihydro-1H-pyrazol-1-yl)methanone], 1 to 1000 nM; to `O=C(N1CC(Oc2nc(NCCO)ccc2F)C1)N1N=CC[C@H]1c1cc(F)cc(F)c1` [Compound 252, (S)(5-(3,5-difluorophenyl)-4,5-dihydro-1H-pyrazol-1-yl)(3-((3-fluoro-6-((2-hydroxyethyl)amino)pyridin-2-yl)oxy)azetidin-1-yl)methanone], 1 to 1000 nM.
The same measure, in the same setting: to `O=C(N1CC(Oc2cc3[nH]c(=O)ccc3cc2F)C1)N1N=CC[C@H]1c1cc(F)cc(F)c1` [Compound 253, (S)-7-((1-(5-(3,5-difluorophenyl)-4,5-dihydro-1H-pyrazole-1-carbonyl)140zetidine-3-yl)oxy)-6-fluoroquinolin-2(1H)-one] belongs 1 to 1000 nM; to `O=C(N1CC(Nc2ncc(F)cc2F)C1)N1N=CC[C@H]1c1cc(F)cc(F)c1` [Compound 254, (S)-(5-(3,5-difluorophenyl)-4,5-dihydro-1H-pyrazol-1-yl)(3-((3,5-difluoropyridin-2-yl)amino)azetidin-1-yl)methanone], 1 to 1000 nM.
`O=C(N1CC(Nc2ccc(F)cc2F)C1)N1N=CCC1c1cc(F)cc(F)c1` (stereo not shown) [Compound 255, (5-(3,5-difluorophenyl)-4,5-dihydro-1H-pyrazol-1-yl)(3-((2,4-difluorophenyl)amino)azetidin-1-yl)methanone]: the EC50 was in the range of 1 to 1000 nM.
`O=C(N1CC(Oc2ccc3ncc(=O)[nH]c3n2)C1)N1N=CC[C@H]1c1cc(F)cc(F)c1` [Compound 256, (S)-6-((1-(5-(3,5-difluorophenyl)-4,5-dihydro-1H-pyrazole-1-carbonyl)azetidin-3-yl)oxy)pyrido[2,3-b]pyrazin-3(4H)-one]: the EC50 lay in the range of 1 to 1000 nM.
Same read-out and setting: to `COC(=O)c1cc2sc(OC3CN(C(=O)N4N=CC[C@H]4c4cc(F)cc(F)c4)C3)nc2[nH]1` [Compound 257, methyl (S)-2-((1-(5-(3,5-difluorophenyl)-4,5-dihydro-1H-pyrazole-1-carbonyl)azetidin-3-yl)oxy)-4H-pyrrolo[2,3-d]thiazole-5-carboxylate] belongs 1 to 1000 nM; to `CNC(=O)c1cc2sc(OC3CN(C(=O)N4N=CC[C@H]4c4cc(F)cc(F)c4)C3)nc2[nH]1` [Compound 258, (S)-2-((1-(5-(3,5-difluorophenyl)-4,5-dihydro-1H-pyrazole-1-carbonyl)azetidin-3-yl)oxy)-N-methyl-4H-pyrrolo[2,3-d]thiazole-5-carboxamide], 1 to 1000 nM; to `O=C(O)c1cc2sc(OC3CN(C(=O)N4N=CC[C@H]4c4cc(F)cc(F)c4)C3)nc2[nH]1` [Compound 259, (S)-2-((1(5-(3,5-difluorophenyl)-4,5-dihydro-1H-pyrazole-1-carbonyl)azetidin-3-yl)oxy)-4H-pyrrolo[2,3-d]thiazole-5-carboxylic acid], 1 to 1000 nM.
On the same count and under the same terms, to `O=C(N1CCN(c2ncc3cn[nH]c3n2)CC1)N1N=CC[C@H]1c1cc(F)cc(F)c1` [Compound 260, (S)-(4-(1H-pyrazolo[3,4-d]pyrimidin-6-yl)piperazin-1-yl)(5-(3,5-difluorophenyl)-4,5-dihydro-1H-pyrazol-1-yl)methanone] belongs 1 to 1000 nM; to `O=C(c1cc2sc(OC3CN(C(=O)N4N=CC[C@H]4c4cc(F)cc(F)c4)C3)nc2[nH]1)N1CCC1` [Compound 261, (S)-azetidin-1-yl(2-((1-(5-(3,5-difluorophenyl)-4,5-dihydro-1H-pyrazole-1-carbonyl)azetidin-3-yl)oxy)-4H-pyrrolo[2,3-d]thiazol-5-yl)methanone], 1 to 1000 nM.
Regarding `CNc1nc(OC2CN(C(=O)N3N=CC[C@H]3c3cc(F)cc(F)c3)C2)c(F)cc1F` [Compound 262, (S)-(3-((3,5-difluoro-6-(methylamino)pyridin-2-yl)oxy)azetidin-1-yl)(5-(3,5-difluorophenyl)-4,5-dihydro-1H-pyrazol-1-yl)methanone], the EC50 is 1 to 1000 nM.
Same read-out and setting: to `N#Cc1ccnc(OC2CN(C(=O)N3N=CC[C@H]3c3cc(F)cc(F)c3)C2)n1` [Compound 264, (S)-2-((1-(5-(3,5-difluorophenyl)-4,5-dihydro-1H-pyrazole-1-carbonyl)azetidin-3-yd)oxy)pyrimidine-4-carbonitrile] belongs 1 to 1000 nM; to `N#Cc1nccc(OC2CN(C(=O)N3N=CC[C@H]3c3cc(F)cc(F)c3)C2)n1` [Compound 265, (S)-4-((1-(5-(3,5-difluorophenyl)-4,5-dihydro-1H-pyrazole-1-carbonyl)azetidin-3-yl)oxy)pyrimidine-2-carbonitrile], 1 to 1000 nM; to `O=C(N1CC(Oc2nc(NCCO)ncc2F)C1)N1N=CC[C@H]1c1cc(F)cc(F)c1` [Compound 266, (S)-(5-(3,5-difluorophenyl)-4,5-dihydro-H-pyrazol-1-yl)(3-((5-fluoro-2-((2-hydroxyethyl)amino)pyrimidin-4-yl)oxy)azetidin-1-yl)methanone], 1 to 1000 nM.
Same read-out and setting: to `O=C(N1CC(Oc2nc(Cl)ncc2F)C1)N1N=CC[C@H]1c1cc(F)cc(F)c1` [Compound 267] belongs 1 to 1000 nM.
The same measure, in the same setting: to `CNc1ncc(F)c(OC2CN(C(=O)N3N=CC[C@H]3c3cc(F)cc(F)c3)C2)n1` [Compound 268, (S)-(5-(3,5-difluorophenyl)-4,5-dihydro-1H-pyrazol-1-yl)(3-((5-fluoro-2-(methylamino)pyrimidin-4-yl)oxy)azetidin-1-yl)methanone] belongs 1 to 1000 nM; to `N#CCCNc1ncc(F)c(OC2CN(C(=O)N3N=CC[C@H]3c3cc(F)cc(F)c3)C2)n1` [Compound 269, (S)-3-((4-((1-(5-(3,5-fluorophenyl)-4,5-dihydro-1H-pyrazole-1-carbonyl)azetidin-3-yl)oxy)-5-fluoropyrimidin-2-yl)amino)propanenitrile], 1 to 1000 nM.
Turning to `NC(=O)CCNc1ncc(F)c(OC2CN(C(=O)N3N=CC[C@H]3c3cc(F)cc(F)c3)C2)n1` [Compound 270, (S)-3-((4-((1-(5-(3,5-difluorophenyl)-4,5-dihydro-1H-pyrazole-1-carbonyl)azetidin-3-yl)oxy)-5-fluoropyrimidin-2-yl)amino)propanamide], the EC50 was 1 to 1000 nM.
Still for that read-out and setting: to `COc1nc(N2CCN(C(=O)N3N=CC[C@H]3c3cc(F)cc(F)c3)CC2)ncc1F` [Compound 271, (S)-(5-(3,5-difluorophenyl)-4,5-dihydro-1H-pyrazol-1-yl)(4-(5-fluoro-4-methoxypyrimidin-2-yl)piperazin-1-yl)methanone] belongs 1 to 1000 nM; to `CCOC(=O)c1nc(OC2CN(C(=O)N3N=CC[C@H]3c3cc(F)cc(F)c3)C2)sc1Cl` [Compound 272, ethyl (S)-5-chloro-2-((1-(5-(3,5-difluorophenyl)-4,5-dihydro-1H-pyrazole-1-carbonyl)azetidin-3-yl)oxy)thiazol-4-carboxylate], 1 to 1000 nM; to `CNC(=O)c1nc(OC2CN(C(=O)N3N=CC[C@H]3c3cc(F)cc(F)c3)C2)sc1Cl` [Compound 273, (S)-5-chloro-2-((1-(5-(3,5-difluorophenyl)-4,5-dihydro-1H-pyrazole-1-carbonyl)azetidin-3-yl)oxy)-N-methylthiazole-4-carboxamide], 1 to 1000 nM.
Same read-out and setting: to `NC(=O)c1nc(OC2CN(C(=O)N3N=CC[C@H]3c3cc(F)cc(F)c3)C2)sc1Cl` [Compound 274, (S)-5-chloro-2-((1-(5-(3,5-difluorophenyl)-4,5-dihydro-1H-pyrazole-1-carbonyl)azetidin-3-yl)oxy)thiazole-4-carboxamide] belongs 1 to 1000 nM; to `O=C(c1nc(OC2CN(C(=O)N3N=CC[C@H]3c3cc(F)cc(F)c3)C2)sc1Cl)N1CCC1` [Compound 275], 1 to 1000 nM; to `O=C(N1CC(Oc2nc3ccccc3s2)C1)N1N=CCC1c1cc(F)cc(F)c1` (stereo not shown) [Compound 276, (3-(benzo[d]thiazol-2-yloxy)azetidin-1-yl)(5-(3,5-difluorophenyl)-4,5-dihydro-1H-pyrazol-1-yl)methanone], 1 to 1000 nM.
